One block for each molecule: values may come before it. Peptide text beside a SMILES is read from it.
Assays:
[1] = Stability analysis by 1H NMR of samples exposed to air and light; details: ambient temperature
Procedure: Stability analysis was performed using 1H NMR (400 MHz) with acetic acid-d4 at various time point (typically days 1, 14, 30 and 60) using samples exposed to air and light at ambient temperature (clear vials with no caps).

[2] = test system: Balb/C mice; assay: Ocular irritation after topical dosing to the cornea (hyperemia, squinting, discharge, lid swelling); format: in vivo; details: for Hyperemia: 3 μL drop in each eye four times daily for 3 days
Procedure: In an embodiment where the ophthalmic formulation is an aqueous formulation, it has been determined in mice that certain formulations can be administered to the surface of the eye without producing irritation that would make them unsuitable for such application. Irritation parameters of TP-211-1, TP-212-1, TP-311-1 and TP-312-1 related to hyperemia, squinting, and discharge were determined in Balb/C mice. Mice were dosed topically to the cornea using a calibrated micropipette, with a 3 μL drop of treatment in each eye four times daily for 3 consecutive days at various concentrations.
TP-211-1 is Lysyl-lysine EPA. TP-212-1 is Lysyl-lysine bis-EPA. TP-311-1 is Lysyl-lysine DHA. TP-312-1 is Lysyl-lysine bis-DHA. The study drugs were prepared using phosphate buffered saline (PBS) to reach target concentrations ranging from 0.1% to 1.0%.
The animals were monitored for scratching at the eye or any other abnormal behavior post-dose. Ocular exams were conducted on Days 1 and 3 with use of a Micron III camera system to take high resolution videos of the right eye of each animal Clinical signs including but not limited to hyperemia, discharge, lid swelling, and squinting were evaluated by trained personnel who was masked as to group assignment. Each clinical sign was graded on a scale of 0-4, with the exception of lid swelling which was graded on a scale of 0-2. Scores were averaged and are expressed as the mean±SEM for each group. Statistical significance was assessed between the treatment arms and the vehicle group. Any significance is noted by asterisks (*=p<0.05, **=p<0.01, ***=p<0.001).

[3] = Oral pharmacokinetics (oral gavage), plasma free EPA or free DHA; format: in vivo, Sprague-Dawley rats; details: oral gavage 40 mg/kg, rat
Procedure: Experiments via Oral Gavage: Oral pharmacokinetic parameters of TP-212 (Lysyl-Lysine Bis-EPA), TP-312 (Lysyl-Lysine Bis-DHA), EPA-EE, EPA FFA and DHA FFA were determined in Sprague-Dawley rats. EPA-EE is 97% pure ethyl ester form of eicosapentaenoic acid. It is the principal polyunsaturated fatty acid in Vascepa, an Omega-3 compound approved in the U.S. for the treatment of severe hypertriglyceridemia. EPA FFA is 97% pure free fatty acid form of eicosapentaenoic acid and DHA FFA is 98% pure free fatty acid DHA. EPA FFA and DHA FFA are the two principal poly-unsaturated fatty acids in Epanova, an Omega-3 compound approved in the U.S. for the treatment of severe hypertriglyceridemia. The subject drugs were administered by oral gavage as an aqueous solution in de-ionized water to 6 Sprague-Dawley rats per group (3 males and 3 females). Rats were dosed at 40 mg/kg. Blood samples were obtained from each rat by jugular vein catheter. Samples were collected at pre-dose and at 0.25, 0.5, 1, 2, 4, 8, 12 and 18 hours post dose. Blood samples were centrifuged to separate red blood cells and the resulting plasma samples were analyzed for free EPA or free DHA. Free EPA or […] extracted from rat plasma with hexane at acidic condition without hydrolysis. Detection was by MS-MS monitoring of negative ion for EPA or DHA. Calculated pharmacokinetic values are mean values from 6 rats for each study drug.
For all figures and tables, the data are adjusted as follows for comparative purposes. First, the actual plasma levels are baseline adjusted. Thus, for each study arm, the pre-dose level (time=0) is subtracted from the actual plasma levels at each time point, with negative values adjusted to zero. Second, these baseline adjusted values are further adjusted to be molar dose equivalent on a comparative basis among the study arms with respect to EPA or DHA payload (i.e., as if equal amounts of free fatty acid EPA or DHA are administered in each study arm).

[4] = 0 h (pre-dose), molar dose equivalent, baseline adjusted
[5] = 0.25 h (15 min), molar dose equivalent, baseline adjusted
[6] = 0.5 h (30 min), molar dose equivalent, baseline adjusted
[7] = 1 h (60 min), molar dose equivalent, baseline adjusted
[8] = 2 h (120 min), molar dose equivalent, baseline adjusted
[9] = 4 h (240 min), molar dose equivalent, baseline adjusted
[10] = 8 h, molar dose equivalent, baseline adjusted
[11] = 12 h, molar dose equivalent, baseline adjusted
[12] = 18 h, molar dose equivalent, baseline adjusted
[13] = molar dose equivalent, baseline adjusted

SMILES: CCC=CCC=CCC=CCC=CCC=CCC=CCCC(=O)O.CCC=CCC=CCC=CCC=CCC=CCC=CCCC(=O)O.N=C(N)NCCCC(N)C(=O)NC(CCCNC(=N)N)C(=O)O [Arginyl-arginine Bis-DHA]
Stability by NMR (amount of sample remaining relative to original sample) ([1]; Day 3): 1 (1 = >95%)
Stability by NMR (amount of sample remaining relative to original sample) ([1]; Day 14): 1 (1 = >95%)
Stability by NMR (amount of sample remaining relative to original sample) ([1]; Day 30): 1 (1 = >95%)
Stability by NMR (amount of sample remaining relative to original sample) ([1]; Day 60): 1 (1 = >95%)

SMILES: CCC=CCC=CCC=CCC=CCC=CCCCC(=O)O.CCC=CCC=CCC=CCC=CCC=CCCCC(=O)O.N=C(N)NCCCC(N)C(=O)NC(CCCNC(=N)N)C(=O)O (stereo not drawn) [Arginyl-arginine Bis-EPA] (H-Arg-Arg-OH; configuration not given here)
Stability by NMR (amount of sample remaining relative to original sample) ([1]; Day 3): 1 (1 = >95%)
Stability by NMR (amount of sample remaining relative to original sample) ([1]; Day 14): 1 (1 = >95%)
Stability by NMR (amount of sample remaining relative to original sample) ([1]; Day 30): 1 (1 = >95%)
Stability by NMR (amount of sample remaining relative to original sample) ([1]; Day 60): 1 (1 = >95%)

SMILES: CCC=CCC=CCC=CCC=CCC=CCC=CCCC(=O)O.CCC=CCC=CCC=CCC=CCC=CCC=CCCC(=O)O.N=C(N)NCCCC(N)C(=O)NC(CCCCN)C(=O)O [Arginyl-lysine Bis-DHA]
Stability by NMR (amount of sample remaining relative to original sample) ([1]; Day 3): 1 (1 = >95%)
Stability by NMR (amount of sample remaining relative to original sample) ([1]; Day 14): 1 (1 = >95%)
Stability by NMR (amount of sample remaining relative to original sample) ([1]; Day 30): 1 (1 = >95%)
Stability by NMR (amount of sample remaining relative to original sample) ([1]; Day 60): 1 (1 = >95%)

SMILES: CCC=CCC=CCC=CCC=CCC=CCCCC(=O)O.CCC=CCC=CCC=CCC=CCC=CCCCC(=O)O.N=C(N)NCCCC(N)C(=O)NC(CCCCN)C(=O)O [Arginyl-lysine Bis-EPA]
Stability by NMR (amount of sample remaining relative to original sample) ([1]; Day 3): 1 (1 = >95%)
Stability by NMR (amount of sample remaining relative to original sample) ([1]; Day 14): 1 (1 = >95%)
Stability by NMR (amount of sample remaining relative to original sample) ([1]; Day 30): 1 (1 = >95%)
Stability by NMR (amount of sample remaining relative to original sample) ([1]; Day 60): 1 (1 = >95%)

SMILES: CC/C=C\C/C=C\C/C=C\C/C=C\C/C=C\CCCC(=O)O.NCCCC[C@H](NC(=O)[C@@H](N)CCCCN)C(=O)O [Compound 1, (L,L) Lysyl-lysine EPA salt (mono)]
Hyperemia ([2]; 0.1% concentration in PBS): maintained baseline levels of hyperemia throughout both evaluations
Hyperemia ([2]; 0.25% concentration in PBS): maintained baseline levels of hyperemia throughout both evaluations
Hyperemia ([2]; 0.5% concentration in PBS): some initial increase in hyperemia
Squinting ([2]; all concentrations tested, topical to cornea): no statistically significant changes in squinting
Hyperemia at last dose / final evaluation ([2]; concentrations that showed an initial increase or all tested, last dose / final evaluation (Day 3)): returned to baseline levels by the last dose on Day 3
Concentration at which not irritating / well tolerated ([2]; topical to cornea four times daily for 3 days): less than 0.5%
Stability by NMR (amount of sample remaining relative to original sample) ([1]; Day 3): 1 (1 = >95%)
Stability by NMR (amount of sample remaining relative to original sample) ([1]; Day 14): 1 (1 = >95%)
Stability by NMR (amount of sample remaining relative to original sample) ([1]; Day 30): 1 (1 = >95%)
Stability by NMR (amount of sample remaining relative to original sample) ([1]; Day 60): 1 (1 = >95%)

SMILES: CC/C=C\C/C=C\C/C=C\C/C=C\C/C=C\CCCC(=O)O.NCCCC[C@H](NC(=O)[C@@H](N)CCCCN)C(=O)O.O=C(O)c1cccnc1 [Compound 7, (L,L) Lysyl-lysine EPA niacin]
Stability by NMR (amount of sample remaining relative to original sample) ([1]; Day 3): 1 (1 = >95%)
Stability by NMR (amount of sample remaining relative to original sample) ([1]; Day 14): 1 (1 = >95%)
Stability by NMR (amount of sample remaining relative to original sample) ([1]; Day 30): 1 (1 = >95%)
Stability by NMR (amount of sample remaining relative to original sample) ([1]; Day 60): 1 (1 = >95%)

SMILES: CC/C=C\C/C=C\C/C=C\C/C=C\C/C=C\C/C=C\CCC(=O)O [DHA-FFA, DHA]
Tmax (free DHA) [3]: 4 h
Plasma level of free DHA [3, 4]: 0 ng/mL
Plasma level of free DHA [3, 5]: 0 ng/mL
Plasma level of free DHA [3, 6]: 1800 ng/mL
Plasma level of free DHA [3, 7]: 1800 ng/mL
Plasma level of free DHA [3, 8]: 2200 ng/mL
Plasma level of free DHA [3, 9]: 3400 ng/mL
Plasma level of free DHA [3, 10]: 1700 ng/mL
Plasma level of free DHA [3, 11]: 2100 ng/mL
Plasma level of free DHA [3, 12]: 1200 ng/mL
AUC 0-1 hrs (free DHA) [3, 13]: 1100 ng·h/mL
AUC 0-4 hrs (free DHA) [3, 13]: 8700 ng·h/mL
AUC 0-18 hrs (free DHA) [3, 13]: 36300 ng·h/mL
Cmax (free DHA) [3, 13]: 3400 ng/mL

Stability by NMR (amount of sample remaining relative to original sample) ([1]; Day 3): 1 (1 = >95%)
Stability by NMR (amount of sample remaining relative to original sample) ([1]; Day 14): 1-2
Stability by NMR (amount of sample remaining relative to original sample) ([1]; Day 30): 4 (4 = <50%)
Stability by NMR (amount of sample remaining relative to original sample) ([1]; Day 60): 4 (4 = <50%)
Tmax (free EPA) [3]: 4 h
Plasma level of free EPA [3, 4]: 0 ng/mL
Plasma level of free EPA [3, 5]: 300 ng/mL
Plasma level of free EPA [3, 6]: 500 ng/mL
Plasma level of free EPA [3, 7]: 700 ng/mL
Plasma level of free EPA [3, 8]: 800 ng/mL
Plasma level of free EPA [3, 9]: 1100 ng/mL
Plasma level of free EPA [3, 10]: 500 ng/mL
Plasma level of free EPA [3, 11]: 0 ng/mL
Plasma level of free EPA [3, 12]: 0 ng/mL
AUC 0-18 hrs (free EPA) [3, 13]: 7200 ng·h/mL
Cmax (free EPA) [3, 13]: 1100 ng/mL
SMILES: CC/C=C\C/C=C\C/C=C\C/C=C\C/C=C\CCCC(=O)OCC [EPA ethyl ester]

SMILES: CC/C=C\C/C=C\C/C=C\C/C=C\C/C=C\CCCC(=O)O [EPA-FFA, eicosapentaenoic acid]
Tmax ([3]; both sexes, Sprague-Dawley, plasma): 0.5 h
concentration at 0 h ([3]; both sexes, Sprague-Dawley, plasma, 0 h (pre-dose), molar dose equivalent, baseline adjusted, read-out: Plasma level of free EPA): 0 ng/mL
concentration at 0.25 h ([3]; both sexes, Sprague-Dawley, plasma, 0.25 h (15 min), molar dose equivalent, baseline adjusted, read-out: Plasma level of free EPA): 0 ng/mL
concentration at 0.5 h ([3]; both sexes, Sprague-Dawley, plasma, 0.5 h (30 min), molar dose equivalent, baseline adjusted, read-out: Plasma level of free EPA): 1300 ng/mL
concentration at 1 h ([3]; both sexes, Sprague-Dawley, plasma, 1 h (60 min), molar dose equivalent, baseline adjusted, read-out: Plasma level of free EPA): 500 ng/mL
concentration at 2 h ([3]; both sexes, Sprague-Dawley, plasma, 2 h (120 min), molar dose equivalent, baseline adjusted, read-out: Plasma level of free EPA): 800 ng/mL
concentration at 4 h ([3]; both sexes, Sprague-Dawley, plasma, 4 h (240 min), molar dose equivalent, baseline adjusted, read-out: Plasma level of free EPA): 1100 ng/mL
concentration at 8 h ([3]; both sexes, Sprague-Dawley, plasma, 8 h, molar dose equivalent, baseline adjusted, read-out: Plasma level of free EPA): 900 ng/mL
concentration at 12 h ([3]; both sexes, Sprague-Dawley, plasma, 12 h, molar dose equivalent, baseline adjusted, read-out: Plasma level of free EPA): 300 ng/mL
concentration at 18 h ([3]; both sexes, Sprague-Dawley, plasma, 18 h, molar dose equivalent, baseline adjusted, read-out: Plasma level of free EPA): 0 ng/mL
AUC 0-1 hrs (free EPA) [3, 13]: 600 ng·h/mL
AUC 0-4 hrs (free EPA) [3, 13]: 3100 ng·h/mL
AUC 0-18 hrs (free EPA) [3, 13]: 10500 ng·h/mL
Cmax (free EPA) [3, 13]: 1300 ng/mL
